Measurements from patent US20030220386A1, “Delta 1-pyrrolines for use as pesticides” (priority 2000, published 2003).
Where two headings read alike, the source gives them in different places. One block for each molecule: values may come before it.

Experiments:
[1] = logP determination by HPLC (reversed-phase C 18), EEC Directive 79/831 Annex V.A8; type: physicochemical; settings: 43° C.
Method: The logP values given in the tables and preparation examples above are determined in accordance with EEC Directive 79/831 Annex V.A8 by HPLC (High Performance Liquid Chromatography) using a reversed-phase column (C 18). Temperature: 43° C.
In the acidic range, the determination is carried out at pH 2.3 using the mobile phases 0.1% aqueous phosphoric acid and acetonitrile; linear gradient from 10% acetonitrile to 90% acetonitrile.
In the neutral range, the determination is carried out at pH 7.5 using the mobile phases 0.01 molar aqueous phosphate buffer solution and acetonitrile; linear gradient from 10% acetonitrile to 90% acetonitrile.
Calibration is carried out using unbranched alkan-2-ones (of 3 to 16 carbon atoms) with known logP values (determination of the logP values by the retention times using linear interpolation between two successive alkanones).

[2] = system: greenhouse red spider mite (Tetranychus urticae); test: Tetranychus test (OP-resistant/dip treatment); type: in vivo; settings: 100 ppm, bean plants dipped
Method: After the desired period of time, the activity in % is determined.

[3] = system: Lucilia cuprina larvae; test: Blowfly larvae test/Development-inhibitory action; type: in vivo; settings: 100 ppm; mortality of the larvae after 48 hours
Method: (§1) 20 mg of active compound are dissolved in one ml of dimethyl sulphoxide. To prepare a suitable formulation, the solution of active compound is diluted with water to the concentration desired in each case.
About 20 Lucilia cuprina larvae are introduced into a test tube which contains about 1 cm^3 of horsemeat and 0.5 ml of the preparation of active compound to be tested. The activity of the preparation of active compound is determined after 48 hours as the mortality of the larvae in %.
The test tubes are then transferred into a beaker whose bottom is covered with sand. After a further 12 days, the test tubes are removed and the pupae and flies are counted. The development-inhibitory action is stated as inhibition of hatching in % (ratio of pupae to flies that have hatched) after 1.5 times the development period of an untreated control.

[4] = system: larvae of the mustard beetle (Phaedon cochleariae); test: Phaedon larvae test; settings: 1000 ppm, cabbage leaves dipped
[5] = system: Amblyomma hebraeum nymphs; test: Test with polyphagous tick nymphs, dip treatment; type: in vivo; settings: nymphs immersed for 1 minute; after 4 weeks
Method: as §1
10 nymphs which have sucked themselves full are immersed for 1 minute into the preparation of active compound to be tested. The animals are transferred to Petri dishes (Ø 9.5 cm) fitted with filter discs and covered. After 4 weeks of storage in a climatized room, the mortality is determined.
100% means that none of the animals has undergone normal ecdysis. 0% means that all animals have undergone ecdysis.

[6] = system: cotton aphid (Aphis gossypii); test: Aphis gossypii test; type: in vivo; settings: 200 ppm, cotton leaves dipped
[7] = system: peach aphid (Myzus persicae); test: Myzus test; type: in vivo; settings: cabbage leaves dipped
[8] = system: larvae of the armyworm (Spodoptera frugiperda); test: Spodoptera frugiperda test; type: in vivo; settings: 1000 ppm, cabbage leaves dipped
[9] = system: Heliothis virescens caterpillars; test: Heliothis virescens test; type: in vivo; settings: soya bean shoots dipped
[10] = system: caterpillars of the diamondback moth (Plutella xylostella); test: Plutella test; type: in vivo; settings: cabbage leaves dipped
[11] = system: Meloidogyne incognita; test: Meloidogyne test; type: in vivo; settings: 20 ppm, nematicidal action by formation of galls on lettuce roots
Method: Vessels are filled with sand, solution of active compound, Meloidogyne incognita egg/larvae suspension and lettuce seeds. The lettuce seeds germinate and the plants develop. On the roots, galls are formed.
After the desired period of time, the nematicidal action is determined in % by the formation of galls. 100% means that no galls were found; 0% means that the number of galls on the treated plants corresponds to that of the untreated control.

[12] = system: larvae of the armyworm (Spodoptera exigua); test: Spodoptera exigua test; type: in vivo; settings: 1000 ppm, cabbage leaves dipped
[13] = reversed-phase C18 HPLC column, pH 2.3, 0.1% aqueous phosphoric acid/acetonitrile, read-out: log P (pH 2.3)
[14] = pH 2.3, 0.1% aqueous phosphoric acid/acetonitrile, read-out: log P (pH 2.3)

chromatographic logP [1, 13]: 2.28
SMILES: CN(C)S(=O)(=O)Oc1ccc(-c2ccccc2C2CCC(=O)N2)cc1 (single isomer, unassigned; isomer 2) [“ortho” isomer, 2′-(5-oxo-2-pyrrolidinyl)-1,1′-biphenyl-4-yl dimethylsulphamate]

SMILES: O=S(=O)(Oc1ccc(C2CCC(c3c(F)cccc3F)=N2)cc1)C(F)(F)F (stereo not drawn) [I-1, 4-[5-(2,6-difluorophenyl)-3,4-dihydro-2H-pyrrol-2-yl]phenyl trifluoromethanesulphonate]
Kill rate in % after 7 days [2]: 95%
Action in % after 48 hours [3]: 100%
Kill rate in % after 7 days [4]: 100%
activity (mortality / no normal ecdysis) [5]: good activity
Kill rate in % after 6 days [6]: 95%
Kill rate in % after 6 days ([7]; 20 ppm): 95%
chromatographic logP [1, 13]: 3.49

SMILES: O=S(=O)(Oc1ccc(-c2ccc(C3CCC(c4c(F)cccc4F)=N3)cc2)cc1)C(F)(F)C(F)(F)C(F)(F)C(F)(F)F (stereo not drawn) [I-3, 4′-[5-(2,6-Difluorophenyl)-3,4-dihydro-2H-pyrrol-2-yl]-1,1′-biphenyl-4-yl 1,1,2,2,3,3,4,4,4-nonafluoro-1-butanesulphonate]
Kill rate in % after 7 days [2]: 98%
Kill rate in % after 7 days [4]: 100%
Kill rate in % after 6 days [8]: 100%
chromatographic logP [1, 14]: 5.57

chromatographic logP [1, 13]: 3.06
SMILES: CN(C)S(=O)(=O)Oc1ccc(-c2ccc(C3CCC(c4c(F)cccc4F)=N3)cc2)cc1 (stereo not drawn) [I-4, 4′-[5-(2,6-Difluorophenyl)-3,4-dihydro-2H-pyrrol-2-yl]-1,1′-biphenyl-4-yl dimethylsulphamate]
Kill rate in % after 7 days [4]: 100%
Kill rate in % after 6 days [8]: 100%

chromatographic logP [1, 13]: 4.27
SMILES: O=S(=O)(Oc1ccc(-c2ccc([C@H]3CCC(c4c(F)cccc4F)=N3)cc2)cc1)C(F)(F)F [I-5, 4′-[(2R)-5-(2,6-difluorophenyl)-3,4-dihydro-2H-pyrrol-2-yl]-1,1′-biphenyl-4-yl trifluoromethanesulphonate]
Action in % after 48 hours [3]: 100%
Kill rate in % after 7 days [4]: 100%
Kill rate in % after 6 days ([9]; 5 ppm): 100%
activity (mortality / no normal ecdysis) [5]: good activity
Kill rate in % after 6 days [8]: 100%
Kill rate in % after 6 days ([10]; 5 ppm): 100%
Kill rate in % after 14 days [11]: 100%

SMILES: O=S(=O)(Oc1ccc(C2CCC(c3c(F)cccc3F)=N2)cc1)c1ccc(OC(F)(F)F)cc1 (stereo not drawn) [I-6, 4-[5-(2,6-difluorophenyl)-3,4-dihydro-2H-pyrrol-2-yl]phenyl 4-(trifluoromethoxy)benzenesulphonate]
Kill rate in % after 7 days [2]: 98%
Action in % after 48 hours [3]: 90%
Kill rate in % after 7 days [4]: 90%
Kill rate in % after 6 days ([7]; 1000 ppm): 95%
chromatographic logP [1, 13]: 3.83

SMILES: O=S(=O)(Oc1ccc(-c2ccc(C3CCC(c4c(F)cccc4F)=N3)cc2)cc1)C(F)(F)F (stereo not drawn) [I-7, 4′-[5-(2,6-difluorophenyl)-3,4-dihydro-2H-pyrrol-2-yl]-1,1′-biphenyl-4-yl trifluoromethanesulphonate]
Kill rate in % after 7 days [2]: 98%
Action in % after 48 hours [3]: 100%
Kill rate in % after 7 days [4]: 100%
Kill rate in % after 6 days ([9]; 1000 ppm): 100%
activity (mortality / no normal ecdysis) [5]: good activity
Kill rate in % after 6 days [12]: 100%
Kill rate in % after 6 days [8]: 100%
Kill rate in % after 6 days ([10]; 1000 ppm): 100%
chromatographic logP [1, 13]: 4.15

SMILES: CC(C)(C)OC(=O)NC(CCC(=O)c1c(F)cccc1F)c1ccc(OS(=O)(=O)C(F)(F)F)cc1 (stereo not drawn) [II-1, 4-[1-[(tert-butoxycarbonyl)amino]-4-(2,6-difluorophenyl)-4-oxobutyl]phenyl trifluoromethanesulphonate]
chromatographic logP [1, 14]: 4.38

SMILES: CC(C)(C)OC(=O)N[C@H](CCC(=O)c1c(F)cccc1F)c1ccc(OS(=O)(=O)C(F)(F)F)cc1 [II-2, 4-[(1R)-1-[(tert-Butoxycarbonyl)amino]-4-(2,6-difluorophenyl)-4-oxobutyl]phenyl trifluoromethanesulphonate]
chromatographic logP [1, 14]: 4.37

SMILES: CC(C)(C)OC(=O)NC(CCC(=O)c1c(F)cccc1F)c1ccc(-c2ccc(OS(=O)(=O)C(F)(F)C(F)(F)C(F)(F)C(F)(F)F)cc2)cc1 (stereo not drawn) [II-3, 4′-[1-[(tert-Butoxycarbonyl)amino]-4-(2,6-difluorophenyl)-4-oxobutyl]-1,1′-biphenyl-4-yl 1,1,2,2,3,3,4,4,4-nonafluoro-1-butanesulphonate]
chromatographic logP [1, 14]: 6.05

chromatographic logP [1, 13]: 4.25
SMILES: CN(C)S(=O)(=O)Oc1ccc(-c2ccc(C(CCC(=O)c3c(F)cccc3F)NC(=O)OC(C)(C)C)cc2)cc1 (stereo not drawn) [II-4, tert-Butyl 4-(2,6-difluorophenyl)-1-(4′-{[(dimethylamino)sulphonyl]oxy}-1,1′-biphenyl-4-yl)-4-oxobutylcarbamate]

chromatographic logP [1, 13]: 2.23
SMILES: CN(C)S(=O)(=O)Oc1ccc(-c2ccc(C3CCC(=O)N3)cc2)cc1 (stereo not drawn) [IX-b-1, 4′-(5-oxo-2-pyrrolidinyl)-1,1′-biphenyl-4-yl dimethylsulphamate]

SMILES: O=C1CCC(c2ccc(-c3ccc(OS(=O)(=O)C(F)(F)C(F)(F)C(F)(F)C(F)(F)F)cc3)cc2)N1 (stereo not drawn) [IX-b-2, 4′-(5-Oxo-2-pyrrolidinyl)-1,1′-biphenyl-4-yl 1,1,2,2,3,3,4,4,4-nonafluoro-1-butanesulphonate]
chromatographic logP [1, 14]: 4.21

chromatographic logP ([1]; reversed-phase C18 HPLC column, pH 7.5, 0.01 molar aqueous phosphate buffer/acetonitrile, read-out: log P (pH 7.5)): 4.46
SMILES: CC1(C)OB(c2ccc(C3CCC(c4c(F)cccc4F)=N3)cc2)OC1(C)C (stereo not drawn) [V-1, 5-(2,6-difluorophenyl)-2-[4-(4,4,5,5-tetramethyl-1,3,2-dioxaborolan-2-yl)phenyl]-3,4-dihydro-2H-pyrrole]

chromatographic logP [1, 13]: 3.31
SMILES: CC(C)(C)OC(=O)N1C(=O)CCC1c1ccc(OS(=O)(=O)C(F)(F)F)cc1 (stereo not drawn) [VII-1, tert-butyl 2-oxo-5-(4-{[(trifluoromethyl)-sulphonyl]oxy}phenyl)-1-pyrrolidinecarboxylate]

chromatographic logP [1, 13]: 3.31
SMILES: CC(C)(C)OC(=O)N1C(=O)CC[C@@H]1c1ccc(OS(=O)(=O)C(F)(F)F)cc1 [VII-2, tert-butyl 2-oxo-(5R)-5-(4-{[(trifluoromethyl)sulphonyl]oxy}phenyl)-1-pyrrolidinecarboxylate]

SMILES: CC(C)(C)OC(=O)N1C(=O)CCC1c1ccc(-c2ccc(OS(=O)(=O)C(F)(F)C(F)(F)C(F)(F)C(F)(F)F)cc2)cc1 (stereo not drawn) [VII-3, tert-Butyl 2-(4′-{[(1,1,2,2,3,3,4,4,4-nonafluorobutyl)sulphonyl]oxy}-1,1′-biphenyl-4-yl)-5-oxo-1-pyrrolidinecarboxylate]
chromatographic logP [1, 14]: 5.44

chromatographic logP [1, 13]: 3.31
SMILES: CN(C)S(=O)(=O)Oc1ccc(-c2ccc(C3CCC(=O)N3C(=O)OC(C)(C)C)cc2)cc1 (stereo not drawn) [VII-4, tert-Butyl 2-(4′-{[(dimethylamino)sulphonyl]oxy}-1,1′-biphenyl-4-yl)-5-oxo-1-pyrrolidinecarboxylate]

SMILES: O=S(=O)(Oc1ccc(-c2ccccc2)cc1)C(F)(F)C(F)(F)C(F)(F)C(F)(F)F [XIII-1, 1,1′-biphenyl-4-yl 1,1,2,2,3,3,4,4,4-nonafluoro-1-butanesulphonate]
chromatographic logP [1, 14]: 5.81

SMILES: CN(C)S(=O)(=O)Oc1ccc(-c2ccccc2)cc1 [XIII-2, 1,1′-biphenyl-4-yl dimethylsulphamate]
melting point: 105 to 107 °C
chromatographic logP [1, 14]: 3.51
